Measured values as given in patent US9422233B2 (priority 2011, dated 2016).

Experiments:
MMP-9 = MMP-9 (Homo sapiens, UniProt P14780); assay: biochemical
human recombinant FAAH = target: T1, human recombinant FAAH (Homo sapiens, UniProt O00519); assay: biochemical
T1 construct: purchased Cayman Chemical (Ann Arbor, Mich.)
T1 sequence (O00519 1-579): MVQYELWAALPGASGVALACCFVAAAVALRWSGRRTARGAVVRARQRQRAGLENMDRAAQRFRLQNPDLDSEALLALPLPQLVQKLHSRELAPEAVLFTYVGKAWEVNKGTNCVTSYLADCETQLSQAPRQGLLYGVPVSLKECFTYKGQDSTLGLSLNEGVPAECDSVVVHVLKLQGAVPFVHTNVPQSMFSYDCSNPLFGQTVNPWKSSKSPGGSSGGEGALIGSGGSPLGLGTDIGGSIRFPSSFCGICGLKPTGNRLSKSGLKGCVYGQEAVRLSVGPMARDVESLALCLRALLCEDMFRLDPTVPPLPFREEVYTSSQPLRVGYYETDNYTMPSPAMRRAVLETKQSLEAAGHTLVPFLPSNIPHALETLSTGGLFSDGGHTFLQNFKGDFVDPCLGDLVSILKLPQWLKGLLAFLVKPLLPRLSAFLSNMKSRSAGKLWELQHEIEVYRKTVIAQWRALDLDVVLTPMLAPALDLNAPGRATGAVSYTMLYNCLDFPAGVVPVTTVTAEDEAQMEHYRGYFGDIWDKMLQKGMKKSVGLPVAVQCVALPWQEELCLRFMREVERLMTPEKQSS

rabbit corneas = format: cell-based

Chain of MMP-9 (P14780 94-707, species assumed): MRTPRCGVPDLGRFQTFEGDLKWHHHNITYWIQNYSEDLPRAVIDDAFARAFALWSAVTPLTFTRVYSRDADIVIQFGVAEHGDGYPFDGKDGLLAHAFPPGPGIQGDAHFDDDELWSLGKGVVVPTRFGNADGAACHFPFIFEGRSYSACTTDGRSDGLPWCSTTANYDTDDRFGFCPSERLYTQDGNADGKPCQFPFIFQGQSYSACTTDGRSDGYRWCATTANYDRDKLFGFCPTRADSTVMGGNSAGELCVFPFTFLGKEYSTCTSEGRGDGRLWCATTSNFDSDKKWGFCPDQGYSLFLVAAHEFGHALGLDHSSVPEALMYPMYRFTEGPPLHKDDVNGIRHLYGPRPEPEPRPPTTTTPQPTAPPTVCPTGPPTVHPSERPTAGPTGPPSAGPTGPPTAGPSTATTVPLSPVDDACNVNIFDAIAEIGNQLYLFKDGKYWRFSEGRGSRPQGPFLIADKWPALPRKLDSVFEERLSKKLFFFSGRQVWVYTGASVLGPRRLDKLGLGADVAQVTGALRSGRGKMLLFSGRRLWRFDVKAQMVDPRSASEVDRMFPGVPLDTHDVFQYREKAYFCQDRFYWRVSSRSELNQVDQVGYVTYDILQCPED

Row | SMILES | IC50 (MMP-9) [µM] | IC50 (human recombinant FAAH) [µM] | basement membrane attached post-treatment (rabbit corneas) [%] | epithelial-stromal separation (detachment) (rabbit corneas) [%]
1 | CCCCCCCCCCCCCCCCOC(=O)N(O)Cc1ccc(O)c(OC)c1 [Compound 4a, Hexadecyl-N-hydroxy(4-hydroxy-3-methoxybenzyl)carbamate] | 120 | – | – | –
2 | CCCCCCCCCCCCOC(=O)N(O)Cc1ccc(O)c(OC)c1 [Compound 4b, Dodecyl-N-hydroxy(4-hydroxy-3-methoxybenzyl)carbamate] | – | 67 | – | –
3 | CCCCCCCCOC(=O)N(O)Cc1ccc(O)c(OC)c1 [Compound 4c, Octyl-N-hydroxy(4-hydroxy-3-methoxybenzyl)carbamate] | – | 73 | – | –
4 | COc1cc(CN(O)C(=O)Oc2ccccc2)ccc1O [Compound 4g, Phenyl-N-hydroxy(4-hydroxy-3-methoxybenzyl)carbamate] | – | 10 | – | –
5 | CCCCCCCC/C=C\CCCCCCCC(=O)N(O)Cc1ccc(O)c(OC)c1 [Compound 5a, (9Z)—N-Hydroxy-N-[(4-hydroxy-3-methoxyphenyl)methyl]-9-Octadecenamide] | – | 71 | 70 | 30
6 | CCCCCCCCC(CCCCCC)C(=O)N(O)Cc1ccc(O)c(OC)c1 (stereo not drawn) [Compound 5c, 2-hexyl-N-hydroxy-N-(4-hydroxy-3-methoxybenzyl)decanamide] | 99 | – | – | –
7 | CCCCCCCN(O)C(=O)Cc1ccc(O)c(OC)c1 [Compound 10a, N-heptyl-N-hydroxy-2-(4-hydroxy-3-methoxyphenyl)acetamide] | – | 192 | – | –
8 | CCCCCCCCN(O)C(=O)Cc1ccc(O)c(OC)c1 [Compound 10b, N-octyl-N-hydroxy-2-(4-hydroxy-3-methoxyphenyl)acetamide] | 68 | – | 85 | 15
